Measured values reported in PubChem BioAssay AID2060505 (Molecular Pharmacology Branch, DTP, NCI, 2025).

Test system: 633275-114-R-J1-PDC complex spheroids, viability
Test: Anticancer human tumor 633275-114-R-J1-PDC patient-derived endometrial adenocarcinoma cell line growth inhibition [GQUAD]
Settings: for IC50: curve of first compound; for viability, T/C: stronger effect = lower value
How it was run: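 Multi-cell-type spheroids of tumor cells with HUVEC and mesenchymal stem cells, treated with drug combinations. Concentrations descend in half-log steps from near clinical Cmax, or from 10 microM where Cmax is unknown; viability read-out.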

[1] = second compound 0.0316 µM, first compound 0.0316 µM
[2] = second compound 0.0316 µM, first compound 0.1 µM
[3] = second compound 0.0316 µM, first compound 0.316 µM
[4] = second compound 0.0316 µM, first compound 1 µM
[5] = second compound 0.0316 µM, first compound 3.16 µM
[6] = second compound 0.0316 µM, first compound 10 µM
[7] = second compound 0.1 µM, first compound 0.0316 µM
[8] = second compound 0.1 µM, first compound 0.1 µM
[9] = second compound 0.1 µM, first compound 0.316 µM
[10] = second compound 0.1 µM, first compound 1 µM
[11] = second compound 0.1 µM, first compound 3.16 µM
[12] = second compound 0.1 µM, first compound 10 µM
[13] = second compound 0.316 µM, first compound 0.0316 µM
[14] = second compound 0.316 µM, first compound 0.1 µM
[15] = second compound 0.316 µM, first compound 0.316 µM
[16] = second compound 0.316 µM, first compound 1 µM
[17] = second compound 0.316 µM, first compound 3.16 µM
[18] = second compound 0.316 µM, first compound 10 µM
[19] = second compound 1 µM, first compound 0.0316 µM
[20] = second compound 1 µM, first compound 0.1 µM
[21] = second compound 1 µM, first compound 0.316 µM
[22] = second compound 1 µM, first compound 1 µM
[23] = second compound 1 µM, first compound 3.16 µM
[24] = second compound 1 µM, first compound 10 µM
[25] = second compound 3.16 µM, first compound 0.0316 µM
[26] = second compound 3.16 µM, first compound 0.1 µM
[27] = second compound 3.16 µM, first compound 0.316 µM
[28] = second compound 3.16 µM, first compound 1 µM
[29] = second compound 3.16 µM, first compound 3.16 µM
[30] = second compound 3.16 µM, first compound 10 µM
[31] = second compound 10 µM, first compound 0.0316 µM
[32] = second compound 10 µM, first compound 0.1 µM
[33] = second compound 10 µM, first compound 0.316 µM
[34] = second compound 10 µM, first compound 1 µM
[35] = second compound 10 µM, first compound 3.16 µM
[36] = second compound 10 µM, first compound 10 µM
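Also: spheroids exposed to the agents for seven days.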
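For viability, T/C in this document: percent of DMSO vehicle control viability which is 100%.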

`C#Cc1c(F)ccc2cc(O)cc(-c3ncc4c(N5CC6CCC(C5)N6)nc(OCC56CCCN5CC(F)C6)nc4c3F)c12` (stereo unspecified) + Cc1[nH]c2ccc(F)cc2c1-c1nc2c3cccnc3c3ncccc3c2[nH]1 showed an IC50 (second compound 0.0316 µM) greater than 10 µM, an IC50 (second compound 0.1 µM) greater than 10 µM and an IC50 (second compound 0.316 µM) greater than 10 µM. The IC50 (second compound 1 µM) was greater than 10 µM, the IC50 (second compound 3.16 µM) was 4.83 µM and the IC50 (second compound 10 µM) was 4.06 µM. The viability, T/C [1] was 103%, the viability, T/C [2] was 89.9% and the viability, T/C [3] was 93.8%. It also gave a viability, T/C [4] of 81.1%, a viability, T/C [5] of 75.7% and a viability, T/C [6] of 60.6%. It also gave a viability, T/C [7] of 89.7%, a viability, T/C [8] of 107% and a viability, T/C [9] of 83.7%. For the same compound, the viability, T/C [10] was 88.4%, the viability, T/C [11] was 69.8% and the viability, T/C [12] was 64%. It also gave a viability, T/C [13] of 89.3%, a viability, T/C [14] of 86.7% and a viability, T/C [15] of 82.7%. The viability, T/C [16] was 81.1%, the viability, T/C [17] was 77.5% and the viability, T/C [18] was 60.6%. It also gave a viability, T/C [19] of 78.8%, a viability, T/C [20] of 82% and a viability, T/C [21] of 82.5%. The viability, T/C [22] was 74.6%, the viability, T/C [23] was 71.5% and the viability, T/C [24] was 56.6%. For the same compound, the viability, T/C [25] was 63.5%, the viability, T/C [26] was 66.1% and the viability, T/C [27] was 65.7%. For the same compound, the viability, T/C [28] was 66.2%, the viability, T/C [29] was 52% and the viability, T/C [30] was 41.1%. For the same compound, the viability, T/C [31] was 58%, the viability, T/C [32] was 60.7% and the viability, T/C [33] was 60.7%. The viability, T/C [34] was 62.4%, the viability, T/C [35] was 52.8% and the viability, T/C [36] was 34.7%.

In the case of `CC(=O)O[C@H]1C(=O)[C@@]2(C)[C@H]([C@H](OC(=O)c3ccccc3)[C@]3(O)C[C@H](OC(=O)[C@H](O)[C@@H](NC(=O)c4ccccc4)c4ccccc4)C(C)=C1C3(C)C)[C@]1(OC(C)=O)CO[C@@H]1C[C@@H]2O` + Cc1[nH]c2ccc(F)cc2c1-c1nc2c3cccnc3c3ncccc3c2[nH]1, the IC50 (second compound 0.0316 µM) is reported as 0.0329 µM, the IC50 (second compound 0.1 µM) is reported as less than 0.0316 µM and the IC50 (second compound 0.316 µM) is reported as less than 0.0316 µM. The IC50 (second compound 1 µM) was less than 0.0316 µM, the IC50 (second compound 3.16 µM) was less than 0.0316 µM and the IC50 (second compound 10 µM) was less than 0.0316 µM. For the same compound, the viability, T/C [1] was 50.9%, the viability, T/C [2] was 25.6% and the viability, T/C [3] was 20.8%. It also gave a viability, T/C [4] of 19.7%, a viability, T/C [5] of 20.6% and a viability, T/C [6] of 18.9%. It also gave a viability, T/C [7] of 45.3%, a viability, T/C [8] of 25.8% and a viability, T/C [9] of 20.2%. For the same compound, the viability, T/C [10] was 18.4%, the viability, T/C [11] was 19.1% and the viability, T/C [12] was 18.9%. It also gave a viability, T/C [13] of 47.8%, a viability, T/C [14] of 22.1% and a viability, T/C [15] of 19.9%. For the same compound, the viability, T/C [16] was 19.5%, the viability, T/C [17] was 19.4% and the viability, T/C [18] was 19.1%. The viability, T/C [19] was 41%, the viability, T/C [20] was 21.3% and the viability, T/C [21] was 19.8%. The viability, T/C [22] was 17.7%, the viability, T/C [23] was 18.2% and the viability, T/C [24] was 17.2%. It also gave a viability, T/C [25] of 38.2%, a viability, T/C [26] of 17.7% and a viability, T/C [27] of 16.3%. For the same compound, the viability, T/C [28] was 16.5%, the viability, T/C [29] was 19.4% and the viability, T/C [30] was 17.7%. The viability, T/C [31] was 36.8%, the viability, T/C [32] was 18.8% and the viability, T/C [33] was 17.5%. For the same compound, the viability, T/C [34] was 18.8%, the viability, T/C [35] was 18.4% and the viability, T/C [36] was 17.2%.

For `CC(C)(O)C1CCC(Nc2ccc3ncc(-c4cccc(C(F)(F)F)c4)n3n2)CC1` (stereo unspecified) + Cc1[nH]c2ccc(F)cc2c1-c1nc2c3cccnc3c3ncccc3c2[nH]1, the IC50 (second compound 0.0316 µM) was 1.97 µM, the IC50 (second compound 0.1 µM) was 2.01 µM and the IC50 (second compound 0.316 µM) was 1.78 µM. For the same compound, the IC50 (second compound 1 µM) was 1.91 µM, the IC50 (second compound 3.16 µM) was 0.947 µM and the IC50 (second compound 10 µM) was 1.07 µM. It also gave a viability, T/C [1] of 108%, a viability, T/C [2] of 103% and a viability, T/C [3] of 112%. It also gave a viability, T/C [4] of 75.2%, a viability, T/C [5] of 32.2% and a viability, T/C [6] of 32.6%. For the same compound, the viability, T/C [7] was 98.7%, the viability, T/C [8] was 103% and the viability, T/C [9] was 101%. It also gave a viability, T/C [10] of 79.7%, a viability, T/C [11] of 28.9% and a viability, T/C [12] of 32.5%. The viability, T/C [13] was 95.5%, the viability, T/C [14] was 99.1% and the viability, T/C [15] was 90.5%. It also gave a viability, T/C [16] of 70.2%, a viability, T/C [17] of 27.5% and a viability, T/C [18] of 32.6%. The viability, T/C [19] was 89.6%, the viability, T/C [20] was 95.6% and the viability, T/C [21] was 86.8%. For the same compound, the viability, T/C [22] was 74.2%, the viability, T/C [23] was 31% and the viability, T/C [24] was 27%. The viability, T/C [25] was 72.6%, the viability, T/C [26] was 75.5% and the viability, T/C [27] was 69.9%. The viability, T/C [28] was 49.3%, the viability, T/C [29] was 27.4% and the viability, T/C [30] was 26.1%. For the same compound, the viability, T/C [31] was 65.2%, the viability, T/C [32] was 69.8% and the viability, T/C [33] was 62.6%. The viability, T/C [34] was 52.1%, the viability, T/C [35] was 24.1% and the viability, T/C [36] was 21.5%.
